Laboratory results taken from patent US8329717B2, “Pyrimidine derivatives and their use for controlling undesired plant growth” (Bayer Cropscience AG, priority 2008, dated 2012).

Legend:
[1] = system: Veronica persica; experiment: Post-emergence herbicidal effect; assay type: in vivo; conditions: Dosage 320 g/ha, one-leaf stage, visual scoring after ca. 3 weeks vs untreated controls, 100% = plants have died
Experimental: (§1) The following abbreviations are used in the tables below: [table] 2. Post-Emergence Herbicidal Effect and Crop Plant Compatibility Seeds of monocotyledonous or dicotyledonous weed plants or crop plants are planted in wood-fiber pots in sandy loam, covered with earth and grown in a greenhouse under good growth conditions. 2 to 3 weeks after sowing, the test plants are treated in the one-leaf stage. The compounds according to the invention, formulated in the form of wettable powders (WP) or as emulsion concentrates (EC), are then sprayed onto the green plant parts as aqueous suspension or emulsion at a water application rate of 600 to 800 l/ha (converted) with the addition of 0.2% of wetting agent. The dosage of the compounds according to the invention is given in grams per hectare. After ca. 3 weeks' standing time of the test plants in the greenhouse under optimum growth conditions, the effect of the preparations is scored visually in comparison with untreated controls (herbicidal effect in percent (%): 100% effect=plants have died, 0% effect=as control plants).

[2] = system: Stellaria media; experiment: Post-emergence herbicidal effect; assay type: in vivo; conditions: Dosage 320 g/ha, one-leaf stage, visual scoring after ca. 3 weeks vs untreated controls, 100% = plants have died
Experimental: as §1

[3] = system: Polygonum convolvulus; experiment: Post-emergence herbicidal effect; assay type: in vivo; conditions: Dosage 320 g/ha, one-leaf stage, visual scoring after ca. 3 weeks vs untreated controls, 100% = plants have died
Experimental: as §1

[4] = system: Lolium multiflorum; experiment: Post-emergence herbicidal effect; assay type: in vivo; conditions: Dosage 320 g/ha, one-leaf stage, visual scoring after ca. 3 weeks vs untreated controls, 100% = plants have died
Experimental: as §1

[5] = system: Echinochloa crus-galli; experiment: Post-emergence herbicidal effect; assay type: in vivo; conditions: Dosage 320 g/ha, one-leaf stage, visual scoring after ca. 3 weeks vs untreated controls, 100% = plants have died
Experimental: as §1

[6] = system: Alopecurus myosuroides; experiment: Post-emergence herbicidal effect; assay type: in vivo; conditions: Dosage 320 g/ha, one-leaf stage, visual scoring after ca. 3 weeks vs untreated controls, 100% = plants have died
Experimental: as §1

[7] = system: PHBPU; experiment: Post-emergence herbicidal effect; assay type: in vivo; conditions: Dosage 320 g/ha, one-leaf stage, visual scoring after ca. 3 weeks vs untreated controls, 100% = plants have died
Experimental: as §1, with “2.” for “The following abbreviations are used in the tables below: [table] 2.”

[8] = system: Veronica persica; experiment: Pre-emergence herbicidal effect; assay type: in vivo; conditions: Dosage 320 g/ha, visual scoring after 3 weeks vs untreated controls, 100% = plants have died
Excerpt: (§2) 1. Pre-Emergence Herbicidal Effect and Crop Plant Compatibility Seeds of monocotyledonous or dicotyledonous weed plants or crop plants are planted in wood-fiber pots in sandy loam and covered with earth. The compounds according to the invention, formulated in the form of wettable powders (WP) or as emulsion concentrates (EC), are then applied as aqueous suspension or emulsion at a water application rate of 600 to 800 l/ha (converted) with the addition of 0.2% of wetting agent to the surface of the covering earth. The dosage of the compounds according to the invention is given in grams per hectare. Following the treatment, the pots are placed in a greenhouse and kept under good growth conditions for the test plants. The visual scoring of the damage on the test plants is carried out after an experiment time of 3 weeks in comparison with untreated controls (herbicidal effect in percent (%): 100% effect=plants have died, 0% effect=as control plants). The following abbreviations are used in the tables below: [table]

[9] = system: Setaria viridis; experiment: Pre-emergence herbicidal effect; assay type: in vivo; conditions: Dosage 320 g/ha, visual scoring after 3 weeks vs untreated controls, 100% = plants have died
Excerpt: as §2

[10] = system: Stellaria media; experiment: Pre-emergence herbicidal effect; assay type: in vivo; conditions: Dosage 320 g/ha, visual scoring after 3 weeks vs untreated controls, 100% = plants have died
Excerpt: as §2

[11] = system: Viola tricolor; experiment: Pre-emergence herbicidal effect; assay type: in vivo; conditions: Dosage 320 g/ha, visual scoring after 3 weeks vs untreated controls, 100% = plants have died
Excerpt: as §2

[12] = system: Lolium multiflorum; experiment: Pre-emergence herbicidal effect; assay type: in vivo; conditions: Dosage 320 g/ha, visual scoring after 3 weeks vs untreated controls, 100% = plants have died
Excerpt: as §2

[13] = system: Echinochloa crus-galli; experiment: Pre-emergence herbicidal effect; assay type: in vivo; conditions: Dosage 320 g/ha, visual scoring after 3 weeks vs untreated controls, 100% = plants have died
Excerpt: as §2

[14] = system: Alopecurus myosuroides; experiment: Pre-emergence herbicidal effect; assay type: in vivo; conditions: Dosage 320 g/ha, visual scoring after 3 weeks vs untreated controls, 100% = plants have died
Excerpt: as §2

[15] = system: Matricaria inodora; experiment: Pre-emergence herbicidal effect; assay type: in vivo; conditions: Dosage 320 g/ha, visual scoring after 3 weeks vs untreated controls, 100% = plants have died
Excerpt: as §2

[16] = logp (HCOOH), chemicophysical data
[17] = system: Setaria viridis; experiment: Post-emergence herbicidal effect; assay type: in vivo; conditions: Dosage 320 g/ha, one-leaf stage, visual scoring after ca. 3 weeks vs untreated controls, 100% = plants have died
Experimental: as §1

[18] = system: Amaranthus retroflexus; experiment: Post-emergence herbicidal effect; assay type: in vivo; conditions: Dosage 320 g/ha, one-leaf stage, visual scoring after ca. 3 weeks vs untreated controls, 100% = plants have died
Experimental: as §1

[19] = system: Amaranthus retroflexus; experiment: Pre-emergence herbicidal effect; assay type: in vivo; conditions: Dosage 320 g/ha, visual scoring after 3 weeks vs untreated controls, 100% = plants have died
Excerpt: as §2

[20] = system: Viola tricolor; experiment: Post-emergence herbicidal effect; assay type: in vivo; conditions: Dosage 320 g/ha, one-leaf stage, visual scoring after ca. 3 weeks vs untreated controls, 100% = plants have died
Experimental: as §1

[21] = system: Abutilon theophrasti; experiment: Post-emergence herbicidal effect; assay type: in vivo; conditions: Dosage 320 g/ha, one-leaf stage, visual scoring after ca. 3 weeks vs untreated controls, 100% = plants have died
Experimental: as §1

[22] = system: Polygonum convolvulus; experiment: Pre-emergence herbicidal effect; assay type: in vivo; conditions: Dosage 320 g/ha, visual scoring after 3 weeks vs untreated controls, 100% = plants have died
Excerpt: as §2

[23] = system: Avena fatua; experiment: Pre-emergence herbicidal effect; assay type: in vivo; conditions: Dosage 320 g/ha, visual scoring after 3 weeks vs untreated controls, 100% = plants have died
Excerpt: as §2

Structure (SMILES) | Post-emergence herbicidal effect VERPE [1] [%] | Post-emergence herbicidal effect STEME [2] [%] | Post-emergence herbicidal effect POLCO [3] [%] | Post-emergence herbicidal effect LOLMU [4] [%] | Post-emergence herbicidal effect ECHCG [5] [%] | Post-emergence herbicidal effect ALOMY [6] [%] | Post-emergence herbicidal effect PHBPU [7] [%] | Pre-emergence herbicidal effect VERPE [8] [%] | Pre-emergence herbicidal effect SETVI [9] [%] | Pre-emergence herbicidal effect STEME [10] [%] | Pre-emergence herbicidal effect VIOTR [11] [%] | Pre-emergence herbicidal effect LOLMU [12] [%] | Pre-emergence herbicidal effect ECHCG [13] [%] | Pre-emergence herbicidal effect ALOMY [14] [%] | Pre-emergence herbicidal effect MATIN [15] [%] | Post-emergence herbicidal effect AMARE [18] [%] | Pre-emergence herbicidal effect AMARE [19] [%] | Post-emergence herbicidal effect VIOTR [20] [%] | Post-emergence herbicidal effect ABUTH [21] [%] | logp (HCOOH) [16] | other results
CCc1nc(N[C@@H]2CCc3ccccc32)nc(N)c1C#N [Example 1.62, 4-Amino-2-[(1R)-2,3-dihydro-1H-inden-1-ylamino]-6-ethylpyrimidine-5-carbonitrile] | 80 | 80 | 80 | 90 | 90 | 80 | 80 | 100 | 90 | 100 | 100 | 80 | 100 | 80 | 90 | – | – | – | – | – | chromatographic logP ([16]; HCOOH (formic acid)): 2.18
Nc1nc(N[C@@H]2CCCc3ccccc32)ncc1Cl [Example 1.106] | 80 | 80 | – | 90 | 90 | 80 | – | 100 | 100 | 100 | – | 100 | 90 | 100 | 90 | 80 | 100 | – | – | – | Post-emergence herbicidal effect SETVI [17]: 80%
Cc1nc(NC2CCc3ccc(C(C)C)cc32)nc(N)c1C#N (racemic) [Example 1.28] | 90 | – | 90 | – | 90 | – | – | – | – | – | – | – | – | – | – | 90 | – | 90 | 90 | wax-like; logp (HCOOH): 2.68; 1H-NMR (CDCl3, 400 MHZ, δ in ppm): 1.20 (d, 6H, CH3); | –
Cc1ccc2c(c1)[C@H](Nc1nc(N)cc(Cl)n1)[C@@H](C)C2 [Example 1.75] | 85 | 87 | 80 | – | 85 | – | 90 | 100 | 95 | 100 | 100 | 95 | 100 | 100 | 100 | 90 | 100 | – | – | – | Pre-emergence herbicidal effect POLCO [22]: 100%; Pre-emergence herbicidal effect AVEFA [23]: 90%
Cc1nc(NC2c3ccccc3CC2C)nc(N)c1C#N (racemic) [Example 1.23] | 90 | 90 | 100 | 90 | 100 | – | 80 | – | – | – | – | – | – | – | – | 80 | – | 90 | 80 | solid; logp (HCOOH): 1.99; 1H-NMR (CDCl3, 400 MHZ, δ in ppm): 1.25 (d, 3H, CH3); | Post-emergence herbicidal effect SETVI [17]: 90%
Nc1nc(N[C@@H]2CCCc3ccccc32)ncc1I [Example 1.37] | 90 | 95 | – | – | 80 | – | 80 | 100 | – | 100 | – | 100 | 100 | – | 90 | 100 | 100 | 80 | 85 | wax-like; logp (HCOOH): 1.32; 1H-NMR (CDCl3, 400 MHZ, δ in ppm): 1.85 (m, 2H, CH2); | –
